According to US20260314594A1, “METHODS OF ENHANCING POLLEN VIABILITY OF PLANTS” (ACADEMIA SINICA, priority 2022, published 2026):

Columns and labels:
lily pollen tube = experiment: Lily pollen tube elongation; type: cell-based, Easter lily (Lilium longiflorum Thunb. cv White Heaven); conditions: 100 ppm HOPA
Protocol: (§1) Lily pollen was cultured in a germination medium (GM) containing 12.7 mM CaCl2), 1.62 mM H3BO3, 9.9 mM KNO3, and 10% sucrose, pH5.2 at 28° C. for 2 hours with shaking at 50 rpm in the dark. Tobacco (Nicotiana tabacum) pollen was germinated in GM containing 1 mM CaCl2), 1 mM KCl, 1.6 mM H3BO3, 5% sucrose, 30 μM CuSO4, 15 mM MES, and 12.5% PEG4000, pH 5.9 at 25° C. for 2 hours with shaking at 50 rpm in the dark. Arabidopsis (Arabidopsis thaliana, Col-0) pollen was germinated in GM containing 5 mM CaCl2), 1 mM MgSO4·5 mM KCl·0.01% H3BO3, 10% Sucrose, pH 7.5 at 25° C. for 2 hours with shaking at 50 rpm in the dark. An Olympus BX51 microscope recorded germinating pollen. Pollen germination rate was calculated using the formula below: Pollen germination rate (%)=number of germinated pollen grains per field of view by the total number of pollen grains per field of view X100.
(§2) ImageJ measured pollen tube length and Western blot band intensity quantification. All P-values were calculated by One-way ANOVA (Analysis Of Variance) and Tukey's post hoc tests with SPSS
We germinated lily pollen in GM with or without 100 ppm HOPA at 28° C. for different time intervals to obtain their growth rates.

Easter lily pollen = Easter lily pollen germination in vitro (germination rate in germination medium); type: cell-based, Easter lily (Lilium longiflorum Thunb. cv White Heaven)
Protocol: Pollen and stigma exudate (SE) were collected from more than ten thousand Easter lily (Lilium longiflorum Thunb. cv White Heaven) flowers. After dehydration at room temperature for 4 to 5 days, pollen grains were collected from dehydrated anthers. Pistils were harvested and used for SE collection. In general, 20~50 μL SE collected from a single ‘White Heaven’ pistil will be stored at −20° C. for further usage.
as §1, §2
To validate the effect of HOPA on the stimulation of pollen germination, lily pollen grains were cultured in the GM containing 0, 10, 50, 100, and 200 ppm (part per million) of artificial HOPA for different time intervals.
SE has shown its effect on restoring the lost germination capability of pollen stored at low temperatures for a specific period (FIGS. 1A-1E). To validate whether the purified HOPA is the cause to rescue pollen germination capability, pollen grains stored for different time intervals (1 day, 2.5, or 5 months) were subjected to germination assays with or without 100 ppm artificial HOPA present in the GM.
High temperature is an adverse factor for pollen viability (Rang et al., 2011). We further investigated the effect of HOPA on the restoration of pollen viability after heat damage. Freshly collected lily pollen were pre-heat treatments at 28, 37, and 42° C. for 4 hours, followed by subjecting for germination in the GM with or without HOPA at 28° C. for 2 hours.
Low temperature is another adverse factor for pollen germination and growth. […] For the control, about 8% of pollen was germinated after 3-hour culture, but HOPA rescued the pollen germination up to about 29% germination rate (FIGS. 6E-6F).

[1] = tested on: Arabidopsis thaliana (Col-0) pollen; experiment: Arabidopsis pollen germination in vitro; type: cell-based; conditions: HOPA at 25° C. for 2 hours; FIG. 8B: 200 ppm, 2.5 hours
Protocol: as §1, with “Arabidopsis (Arabidopsis thaliana, Col-0) pollen was germinated in GM containing 5 mM CaCl2), 1 mM MgSO4·5 mM KCl·0.01% H3BO3, 10% Sucrose, pH 7.5 at 25° C. for 2 hours with shaking at 50 rpm in the dark.” left out
as §2
(§3) To investigate the possibility that HOPA can stimulate diverse-species pollen germination, we examined Nicotiana tabacum and Arabidopsis thaliana (Col-0) pollen in GM with or without HOPA at 25° C. for 2 hours. […] Those results reveal the promising universal function of HOPA in stimulating pollen germination.

Nicotiana tabacum pollen = experiment: Tobacco pollen germination in vitro; type: cell-based; conditions: HOPA at 25° C. for 2 hours; FIG. 8A: 50-1600 ppm, 1.5 hours
Protocol: as §1, with “Tobacco (Nicotiana tabacum) pollen was germinated in GM containing 1 mM CaCl2), 1 mM KCl, 1.6 mM H3BO3, 5% sucrose, 30 μM CuSO4, 15 mM MES, and 12.5% PEG4000, pH 5.9 at 25° C. for 2 hours with shaking at 50 rpm in the dark.” left out
as §2, §3

In the case of CC(C)(CO)C(O)C(=O)NCCCC(=O)O (centres unmarked) [HOPA, hopantenic acid], the “pollen tube elongation rate, in words” value (lily pollen tube; 28° C. (FIG. 7), compared to GM only) is reported as “accelerated the pollen tube elongation rate”, the “pollen tube elongation rate (slope)” value (lily pollen tube; 28° C., different time intervals, control slope 0.0066 (FIG. 7)) is reported as 0.0109 and the “pollen germination rate, HOPA dose response” value (Easter lily pollen; 0, 10, 50, 100 and 200 ppm HOPA in GM, 28° C., FIG. 5: 2 hours, pollen stored at 4° C. one week) is reported as “linear-gradient increase in a HOPA dosage-dependent manner”. The “pollen germination, significance of stimulation” value (Easter lily pollen; 10-200 ppm HOPA, 28° C., 2 hours, pollen stored at 4° C. one week (FIGS. 5A-5G)) was “significantly stimulates Easter lily pollen germination”, the “pollen germination rate at low temperature” value (Easter lily pollen; 18° C., 3-hour culture, 100 ppm HOPA, control about 8% (FIGS. 6E-6F)) was “about 29%” and the “pollen germination at low temperature, in words” value (Easter lily pollen; 18° C., 3-hour growth, 100 ppm HOPA (FIGS. 6E-6F)) was “partially rescued pollen germination rate at low-temperature conditions”. For the same molecule, the “pollen germination rates of HOPA compared with 1/10 SE” value (Easter lily pollen; 100-200 ppm HOPA (FIG. 5G) vs 1/10 SE (about 785 ppm HOPA)) was “comparable effects in pollen germination rates”, the “pollen germination of long-time stored pollen” value (Easter lily pollen; pollen stored at 4° C. for 1 day, 2.5 or 5 months, 100 ppm HOPA, 28° C., 2 hours (FIGS. 6A-6B)) was “validly stimulates pollen germination in all stored pollen grains, especially for 5-month stored pollen germination” and the “pollen germination after heat damage” value (Easter lily pollen; pre-heat treatment at 28, 37 and 42° C. for 4 hours, then 100 ppm HOPA at 28° C. for 2 hours (FIGS. 6C-6D)) was “compromised the heat stress causing a decrease in pollen germination”. For the same molecule, the “Arabidopsis thaliana pollen germination” value [1] was “significantly stimulated” and the “Nicotiana tabacum pollen germination” value (Nicotiana tabacum pollen) was “significantly stimulated”.
